Tested on: ADJ/PC6 tumour
Assay: anti-tumour activity against ADJ/PC6 tumour implanted into female Balb C- mice
Type: in vivo
Design: LD50: unit not given here
Conditions: for TI / ED90: ADJ/PC6 tumour; for ED90: in mg/kg (unit assumed)
Procedure: Compounds were administered both parenterally (IP) and orally (PO).

| Compound | LD50 (IP (parenteral)) | TI (IP (parenteral)) | ED90 (IP (parenteral)) | LD50 (PO (oral)) | TI (PO (oral)) | ED90 (PO (oral)) |
| --- | --- | --- | --- | --- | --- | --- |
| CC1(C)OC(CN)C(CN)O1.[Br][Pt][Br] (racemic) [cis-dibromo[4,5-bis(aminomethyl)-2,2-dimethyl-1,3-dioxolane]platinum (II)] | 21 | 5.2 | 4 |  |  |  |
| CC1(C)OC(CN)C(CN)O1.[Cl][Pt][Cl] [cis-dichloro[(4R,5R)-4,5-bis-(aminomethyl)-2,2-dimethyl-1,3-] [cis-dichloro[(4R,5R)-4,5-bis-(aminomethyl)-2,2-dimethyl-1,3-dioxolane]platinum (II)] | 35 | 22.6 | 1.6 | 1100 | 122 | 9 |
| CC1(C)OC(CN)C(CN)O1.[Cl][Pt][Cl] [cis-dichloro[(4S,5S)-4,5-bis-(aminomethyl)-2,2-dimethyl-1,3-] [cis-dichloro[(4S,5S)-4,5-bis-(aminomethyl)-2,2-dimethyl-1,3-dioxolane]platinum (II)] | 35 | 23.9 | 1.46 | 1130 | 43.5 | 26 |
| [Cl][Pt]1([Cl])[NH]CC2OC(c3ccccc3)OC2C[NH]1 [cis-dichloro[(4S,5S)-4,5-bis-(aminomethyl)-2-phenyl-1,3-dioxolane]platinum (II)] | > 800 | > 26 | 30 | > 1600 | > 1 | ~ 1600 |
| cis-dichloro[2,3-dihydroxy-1,2-diamino butane)-platinum (II) [reference compound] | > 400 | > 1 | 380 | > 800 |  |  |

Reference: patent publication US4783452A, “Platinum coordination compounds” (Johnson Matthey Public Limited Company, priority 1985, dated 1988)
